Results taken from patent US8192962B2, “Processes for detecting toxic substances” (Daikin Industries, Ltd., priority 2001, dated 2012).

System: Unknown protein yeast genes
Experiment: DNA chip mRNA expression in yeast, unknown protein yeast genes (Table 1)
Format: cell-based, Saccharomyces cerevisiae S288C
How it was run: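 Values are treated/untreated fluorescence ratios from a whole-genome yeast DNA chip hybridized over 12 hours at 65° C with Cy3- or Cy5-labelled cDNA from poly(A) mRNA. Log-phase S288C yeast in YPD at 25° C had received a single toxic chemical for two hours, dosed to slow growth without killing.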

Measured: The level of expressed mRNA in the presence of chemical substance/The level of expressed mRNA in the absence of chemical substance

COc1cc(CNC(=O)CCCCC=CC(C)C)ccc1O [(12), 8-methyl-N-vanillyl-6-nonenamide]
1.4: yeast gene YBL107C | yeast gene YGR110W
1.0: yeast gene YDL222C, incubated two hours with chemical substance | yeast gene YDR330W, incubated two hours with chemical substance | yeast gene YER158C, incubated two hours with chemical substance | yeast gene YER163C, incubated two hours with chemical substance | yeast gene YGR101W, incubated two hours with chemical substance | yeast gene YIL041W, incubated two hours with chemical substance | yeast gene YJL057C, incubated two hours with chemical substance | yeast gene YJL066C, incubated two hours with chemical substance | yeast gene YJL152W, incubated two hours with chemical substance | yeast gene YJL161W, incubated two hours with chemical substance | yeast gene YJL171C, incubated two hours with chemical substance | yeast gene YKL071W
1.2: yeast gene YBL048W | yeast gene YDL072C, incubated two hours with chemical substance | yeast gene YFL006W, incubated two hours with chemical substance
0.5: yeast gene YCR102C
0.7: yeast gene YFL032W, incubated two hours with chemical substance | yeast gene YGR130C, incubated two hours with chemical substance
0.9: yeast gene YDL204W, incubated two hours with chemical substance | yeast gene YDR545W, incubated two hours with chemical substance | yeast gene YER079W, incubated two hours with chemical substance | yeast gene YER106W, incubated two hours with chemical substance | yeast gene YER175C, incubated two hours with chemical substance | yeast gene YGL199C, incubated two hours with chemical substance | yeast gene YGR154C, incubated two hours with chemical substance | yeast gene YIL023C, incubated two hours with chemical substance | yeast gene YJR054W, incubated two hours with chemical substance
1.1: yeast gene YEL001C, incubated two hours with chemical substance | yeast gene YER035W, incubated two hours with chemical substance | yeast gene YGL047W, incubated two hours with chemical substance | yeast gene YHR199C, incubated two hours with chemical substance | yeast gene YIL087C, incubated two hours with chemical substance
0.8: yeast gene YDR511W, incubated two hours with chemical substance | yeast gene YFL024C | yeast gene YGL037C, incubated two hours with chemical substance
1.3: yeast gene YGL053W, incubated two hours with chemical substance | yeast gene YJL082W, incubated two hours with chemical substance | yeast gene YJL151C, incubated two hours with chemical substance | yeast gene YJR008W, incubated two hours with chemical substance
1.8: yeast gene YHR138C, incubated two hours with chemical substance
0.6: yeast gene YAL053W, incubated two hours with chemical substance | yeast gene YCR043C | yeast gene YHL042W | yeast gene YIL012W | yeast gene YIL057C | yeast gene YIL089W | yeast gene YIL102C
1.6: yeast gene YGL121C | yeast gene YGR221C, incubated two hours with chemical substance
1.5: yeast gene YDR411C, incubated two hours with chemical substance | yeast gene YFL010C, incubated two hours with chemical substance
1.7: yeast gene YER004W, incubated two hours with chemical substance
